How the values were obtained:
Type in all cases: cell-based
[1] = system: human large intestine-derived organoid; assay: Culture of organoids in presence of Matrigel and LATS kinase inhibitor; cell number by ATP (CellTiter-Glo 3D); conditions: presence of Matrigel; 10 mM Lats-IN as printed; 7 days of culture; vs control without Lats-IN
Experimental: (§1) A human small intestine-derived organoid and a human large intestine-derived organoid were cultured in the presence of an inhibitor of LATS1 kinase and LATS2 kinase, Lats-IN-1 (CAS No. 1424635-83-5, hereinafter sometimes referred to as “Lats-IN” and also referred to as “TRULI”), and their dynamics were observed.
(§2) The human small intestine-derived organoid and the human large intestine-derived organoid used were those established from tissues derived from patients with gastrointestinal tumors who provided informed consent, in accordance with an ethical research plan approved by the Ethics Committee of the Keio University School of Medicine.
(§3) Each organoid was dissociated into single cells using TrypLE Express (Thermo Fisher Scientific Inc.) to obtain a cell suspension. […]
(§4) The cell proliferation was measured by measuring adenosine triphosphate (ATP) using a commercially available kit (product name “CellTiter-Glo 3D,” Promega Corporation).
(§5) The lower left panel of FIG. 2 is a photograph of a control (Ctrl) human large intestine-derived organoid cultured in the absence of Lats-IN, and the lower center panel of FIG. 2 is a photograph of a human large intestine-derived organoid cultured in the presence of Lats-IN. […] The vertical axis of the graph represents luminescence intensity (relative value) indicating the amount of ATP present.

[2] = system: phosphorylated YAP (Ser127); assay: Examination of phosphorylation of YAP by Western blotting in human small intestine-derived organoids; conditions: 10 μM; in both presence and absence of Matrigel; compared to when Lats-IN is absent
Experimental: Human small intestine-derived organoids were cultured in the absence and presence of Matrigel (registered trademark) and in the absence and presence of a LATS kinase inhibitor (final concentration: 10 μM), and phosphorylation of YAP was confirmed by Western blotting.
In FIG. 4, “pYAP” indicates phosphorylated YAP, and “YAP” indicates total YAP (the sum of phosphorylated YAP and non-phosphorylated YAP). The antibody against phosphorylated YAP used was phospho-YAP (Ser127) (#4911, Cell Signaling Technology, Inc.). The antibody against total YAP used was total-YAP (#14074, Cell Signaling Technology, Inc.).

[3] = system: human small intestine-derived organoids dissociated into single cells; assay: Organoid formation from single cells
Description: Therefore, to examine whether signals from cell-to-cell interactions are involved in cell proliferation mediated by transcriptional regulation of YAP-TEAD by LATS inhibition, human small intestine-derived organoids were dissociated into single cells and then observed organoid formation from the single cells.
FIG. 9 presents representative photographs showing the results of organoid formation from single cells in the presence or absence of Matrigel (registered trademark) and in the absence or presence of Lats-IN (final concentration: 10 μM). In FIG. 9, the arrowheads indicate cells or organoids. In addition, D1, D4, and D7 indicate the first, fourth, and seventh days, respectively, after the start of culture. […] In addition, the percentage (%) of cells that formed organoids among the seeded single cells is also shown.

[4] = system: human small intestine-derived organoid; assay: Culture of organoids in presence of Matrigel and LATS kinase inhibitor; cell number by ATP (CellTiter-Glo 3D); conditions: presence of Matrigel; 10 mM Lats-IN as printed; 7 days of culture; vs control without Lats-IN
Experimental: as §1, §2, §3, §4
as §5, with “upper” for “lower”, “small” for “large”

[5] = system: human liver cell organoids; assay: Culturing liver cell organoids in absence of Matrigel; number of viable cells (CellTiter-Glo 3D); conditions: concentration not given
Experimental: Human liver cell organoids, established from primary human liver cells, were supplemented with TrypLE Express (Thermo Fisher Scientific) and incubated at 37° C. for 5 minutes to dissociate them into single cells.
The cells were then collected and suspended in proliferation medium separately supplemented with 2, 5, 10, 20, or 50 μM TDI-011536 (CAS No. 2687970-96-1), and […] seeded into an ultra-low attachment 96-well plate at 2,000 cells/well. The preferred seeding density is 2,000 to 4,000 cells/well. In addition, cells in proliferation medium supplemented with no TDI-011536 were prepared as a control.
The proliferation medium was a medium consisting of a basal medium (Advanced DMEM/F-12 medium, 10 mM HEPES, 2 mM GlutaMAX, 100 U penicillin, 100 μg/mL streptomycin) supplemented with 10% afamin-Wnt-3A conditioned medium, 2% R-spondin 1 conditioned medium, 2% Noggin conditioned medium, and 20 ng/ml Oncostatin M.
On day 6 after seeding, the number of viable cells in the human liver cell organoids was measured using a commercially available kit (product name “CellTiter-Glo 3D,” Promega Corporation).

[6] = system: human large intestine-derived organoids dissociated into single cells; assay: Organoid formation from single cells (Examination 2); conditions: absence of Matrigel, presence of TRULI 10 μM
Experimental: After dissociating human large intestine-derived organoids into single cells, organoid formation from the single cells was observed.
FIG. 27 is a graph showing the results of organoid formation from the single cells in the presence (+) or absence (−) of Matrigel (registered trademark) and in the absence (−) or presence (+, final concentration: 10 μM) of TRULI. […] In addition, the vertical axis of the graph represents the percentage (%) of cells that formed organoids among the seeded single cells.

AXIN2 gene = AXIN2 gene expression by quantitative real-time PCR in human large intestine-derived organoids; conditions: absence of Matrigel; Lats-IN 10 μM
Experimental: Human small intestine-derived organoids and human large intestine-derived organoids were cultured in the absence or presence of Matrigel (registered trademark) and in the absence or presence of Lats-IN (final concentration: 10 μM), and the expression level of the AXIN2 gene, whose expression is regulated by Wnt, was examined by quantitative real-time PCR.
FIG. 16 presents graphs showing the results of quantitative real-time PCR.

In the case of `O=C(N=c1sccn1Cc1ccccc1)c1c[nH]c2ncccc12` [Lats-IN], the “cell proliferation (cell number per well, ATP luminescence)” value [1] is reported as “significantly activated”, the “phosphorylation of YAP” value [2] is reported as “significantly suppressed” and the “organoid formation from single cells” value ([3]; absence of Matrigel, presence of Lats-IN 10 μM, up to day 7) is reported as “proliferated from single cells and formed organoids”. For the same compound, the “percentage of cells that formed organoids” value ([3]; presence of Matrigel and Lats-IN compared with absence of Matrigel and presence of Lats-IN) was “higher”, the “cell proliferation (cell number per well, ATP luminescence)” value [4] was “significantly activated” and the “increase in number of viable cells” value [5] was “about three-fold”. For the same compound, the “organoid formation from single cells” value [6] was “proliferated from single cells and formed organoids” and the “expression level of AXIN2” value (AXIN2 gene) was “increased to a level equivalent to that in the presence of Matrigel”.
